Laboratory results published in BigSolDB 2.1.

O=CC(NS(=O)(=O)[O-])C(O)C(O)C(O)CO.[Na+] (stereo unspecified)
solubility (mole fraction)
Conditions | 288.15 K | 293.15 K | 298.15 K | 303.15 K | 308.15 K | 313.15 K | 318.15 K
in ethanol | 8e-05 | 0.00012 | 0.00021 | 0.00027 | 0.00035 | 0.00046 | 0.00055
in methanol | 0.0004 | 0.00046 | 0.00052 | 0.00058 | 0.00064 | 0.0007 | 0.00076
in water | 0.0315 | 0.0345 | 0.0388 | 0.0444 | 0.0514 | 0.0601 | 0.0727
